Among the data in patent US20040115227A1, “Thermoformable solid pharmaceutical composition for controlled release of perindopril” (priority 2000, published 2004) are degradation and stability values, retold here.

Series [1] can be described thus: degradation during extrusion in the hot state. It counts as physicochemical. To be noted: extrusion in the hot state at temperatures of from 95° C. to 110° C. The method, then:
Moreover, and in surprising manner, it has been shown that the perindopril tert-butylamine salt, which is usually unstable to temperature or in association with certain acidic excipients, was not degraded, or only slightly degraded, during extrusion in the hot state carried out at temperatures of from 95° C. to 110° C. (less than 3% degradation).

Series [2] can be described thus: stability study over 6 months. To be noted: variable temperature and relative humidity conditions, packaging of the aluminium/PVC blister type. It counts as physicochemical.

Counter-ions that a name gives are not always drawn.

As for `CCC[C@H](N[C@@H](C)C(=O)N1[C@H](C(=O)O)C[C@@H]2CCCC[C@@H]21)C(=O)OCC` [perindopril tert-butylamine salt, perindopril], the degradation entry in series [1] is listed as “less than 3%”. In series [2], the stability result is recorded as “excellent stability”.
